Here are results for ten compounds from article PMC6727436, “Gummosin, a sesquiterpene coumarin from Ferula assa-foetida is preferentially cytotoxic to human breast and prostate cancer cell lines” (Avicenna Journal of Phytomedicine, 2019).

In brackets after ≈: the same amount, converted by molar mass.

In series [1] the test system is MCF-7 human breast adenocarcinoma cell line. The series can be described thus: cells. The class given is cell-based. The following applies: for IC50: Homo sapiens, MCF7, 48 h, read-out: IC50 (µg/mL)±SD/Cell line MCF-7; for IC50 / IC50 (µg/mL)±SD/Cell line MCF-7: MCF-7, 48 hr treatment, alamarBlue; for cytotoxic activity at highest dose: MCF-7, highest dose 50 µg/mL. The method, then: (§1) Human breast adenocarcinoma cell line (MCF-7), human prostate cancer cell line (PC3) and human normal fibroblast cell line (NIH) were obtained from Biotechnology Research Center (Mashhad, Iran) and subsequently grown in RPMI-1640 medium with 10% fetal bovine serum (Gibco, Invitrogen, Paisley, UK), penicillin (100 units/ml) and streptomycin ([…]) as antibiotics. The cell culture was done in a humidified incubator under the atmosphere of 5% CO2 at 37 °C.
(§2) To measure the cytotoxic activity of pure compounds, a non-fluorescent substrate called resazurin (alamarBlue®; BioSource Invitrogen, Paisley, UK) was used in this study. In this study, we used a method that was previously reported by Haaften et al., with some small modifications (van Haaften et al., 2011). Briefly, when the cells were in the exponential phase, 1×10^4 of the three cell lines were seeded in 96-well plates. The cells were incubated for 24 hr in order to adhere to the plastic surface of the bottom of the wells. After 24 hr, the cells were treated with 6.25, 12.5, 25 and 50 µg/mL of each compound from the stock solution of 5 mg/mL in dimethyl sulfoxide (DMSO) via serial solution prepared using RPMI-1640. The amount of DMSO in final culture media was lower than […]. Also, to rule out the effects of DMSO on cells, equal amount of DMSO was added to the untreated groups. After 48 hr, viability of the cells was measured by adding alamarBlue® reagent (10% of tissue culture volume from stock solution of 0.14 mg/mL). The absorbance of the wells was read at 600 nm using a microplate reader. Doxorubicin at concentrations of 0.1, 1 and 5 µg/mL was used as the positive control and the viability was calculated using following formula:
(§3) T=Absorbance of wells with pure compounds at 600 nm after 48 hr of incubation.
(§4) UT=Absorbance of wells with cell but without any compound at 600 nm after 48 hr of incubation.
(§5) B=Absorbance of blank (without cell and compounds) at 600 nm after 48 hr of incubation.
(§6) In this study, all the experiments were done at least in triplicate.
Background: Alamar Blue is a resazurin reagent that responds to reducing activity.

The subject of series [2] is PC3 human prostate cancer cell line. In words: cells. Particulars: for IC50: Homo sapiens, 48 h, read-out: IC50 (µg/mL)±SD/Cell line PC3; for IC50 / IC50 (µg/mL)±SD/Cell line PC3: PC3, 48 hr treatment, alamarBlue; for cytotoxic activity at highest dose: PC3, highest dose 50 µg/mL. The class given is cell-based. The method, then: as §1, §2, §3, §4, §5, §6
Series [3] relates to NIH human normal fibroblast cell line. In words: alamarBlue (resazurin) cytotoxicity assay, NIH normal cells. The class given is cell-based. Particulars: for IC50: Homo sapiens, Fibroblast, NIH normal cells, 48 hr treatment, alamarBlue, read-out: IC50 (µg/mL)±SD/Cell line NIH. The method, then:
as §1, §2, §3, §4, §5, §6

The subject of the next series is ovarian cancer cell line. Details: method as in Valiahdi et al., 2013. The following applies: ref Valiahdi et al., 2013; read-out: IC50 against ovarian cancer cell line; cited from earlier work.
On the set-up of series [4]: method as in Iranshahi, 2018. The following applies: cell line not stated; ref Iranshahi, 2018; cited from earlier work.
The next series deals with cancer cell lines. Details: method as in Kasaian, et al., 2015. Particulars: ref Kasaian, et al., 2015; cited from earlier work.

Turning to `COc1cccc2c1C(=O)c1c(O)c3c(c(O)c1C2=O)C[C@@](O)(C(=O)CO)C[C@@H]3O[C@H]1C[C@H](N)[C@H](O)[C@H](C)O1` [Doxorubicin, reference compound], the IC50 in series [1] turned out to be 0.28 µg/mL (≈ 0.515 µM); in series [2], 0.62 µg/mL (≈ 1.14 µM).
On to `C=C1CC[C@@H]2C(C)(C)[C@H](O)CC[C@@]2(C)[C@H]1COc1ccc2ccc(=O)oc2c1` [Farnesiferol A], for which the IC50 is over 100 µg/mL in series [3], over 50 µg/mL in series [1] and over 50 µg/mL in series [2]. The “cytotoxic activity at highest dose” value in series [1] and in series [2] was “did not show cytotoxic activity” in each case.
As to `C=C1CC[C@@H](O)C(C)(C)C1CC/C(C)=C/COc1ccc2ccc(=O)oc2c1` (some centres unmarked) [Farnesiferol B], the IC50 in series [3] was over 100 µg/mL; in series [1] it was under 50 µg/mL; in series [2] it was under 50 µg/mL.
As for `C/C(=C\COc1ccc2ccc(=O)oc2c1)CC[C@@H]1C(C)(C)[C@H]2CC[C@]1(C)O2` [Farnesiferol C], the results for the IC50 in series [3], in series [1] and in series [2] were over 100 µg/mL, under 50 µg/mL and under 50 µg/mL, respectively. The “IC50 (µg/mL)±SD/Cell line MCF-7” value in series [1] worked out at 41.7 ± 8.2 µg/mL (≈ 109 µM). Further, in series [2], the “IC50 (µg/mL)±SD/Cell line PC3” value worked out at 43.1 ± 9.5 µg/mL (≈ 113 µM).
Take `C=C1CCC2C(C)(C)C(O)CCC2(C)C1COc1ccc2ccc(=O)oc2c1` (centres unmarked) [Gummosin]: in series [3], the IC50 was over 100 µg/mL. The “toxicity in normal cell line” value in series [3] (NIH normal cell line, at 50 µg/mL) is recorded as “did not cause any toxicity”. Moreover, in series [1], the IC50 was under 50 µg/mL and the “IC50 (µg/mL)±SD/Cell line MCF-7” value was determined as 32.1 ± 2.3 µg/mL (≈ 83.9 µM). In series [2], the IC50 is under 50 µg/mL and the “IC50 (µg/mL)±SD/Cell line PC3” value amounted to 30.0 ± 4.7 µg/mL (≈ 78.4 µM).
With `CC1(C)CC[C@H]2C(C)(C)[C@H](O)CC[C@]2(C)[C@H]1COc1ccc2ccc(=O)oc2c1` [Samarcandin], the IC50 in series [3] is over 100 µg/mL; in series [1], over 50 µg/mL; in series [2], over 50 µg/mL. For the same compound, the “cytotoxic activity at highest dose” value in series [1] and in series [2] was “unable to induce toxicity” each time.
For `CC(C)=CCC/C(C)=C/CC/C(C)=C/COc1ccc2ccc(=O)oc2c1` [Umbelliprenin], the IC50 was over 100 µg/mL in series [3], over 50 µg/mL in series [1] and over 50 µg/mL in series [2].
Regarding `CC1=CCC2C(C)(C)C(=O)CCC2(C)C1COc1ccc2ccc(=O)oc2c1` (centres unmarked) [conferone], the IC50 in the series with ovarian cancer cell line is 7.79 µM.
Consider `CC(C)=CCC/C(C)=C/CC/C(C)=C/Cc1c(O)c2ccccc2oc1=O` [ferulenol], for which the “IC50 (cytotoxic activity)” value in series [4] is 1 µg/mL (≈ 2.73 µM).
With `CC1=CC[C@@H]2C(C)(C)[C@H](O)CC[C@@]2(C)[C@@H]1COc1ccc2ccc(=O)oc2c1` [feselol, Feselol], in the series with cancer cell lines, the “activity against cancer cell lines” value is “inactive”.
